Reference: patent US20240391862A1, “(1,4,5-TRISUBSTITUTED-1H-PYRAZOL-3-YL)OXY-2-ALKOXY ALKYL ACIDS AND THEIR DERIVATIVES, THEIR SALTS AND THEIR USE AS HERBICIDAL AGENTS” (Bayer AKtiengesellschaft, priority 2021, published 2024)

Key:
[1] = tested on: POLCO; experiment: Post-emergence herbicidal effect, greenhouse pot test; format: in vivo, Fallopia convolvulus
Procedure, shortened: (§1)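 Greenhouse pot plants in sandy loam receive a one-leaf-stage spray at 20 to 320 g/ha. Activity is assessed visually around 3 weeks afterwards on a 0–100% scale, where 100% means the plants have died.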

[2] = tested on: VERPE; experiment: as above; format: in vivo, Veronica persica
Procedure, shortened: as §1

[3] = tested on: ALOMY; experiment: as above; format: in vivo, Alopecurus myosuroides; conditions: visual rating about 3 weeks after treatment
Procedure, shortened: as §1

[4] = tested on: DIGSA; experiment: as above; format: in vivo, Digitaria sanguinalis; conditions: visual rating about 3 weeks after treatment
Procedure, shortened: as §1

[5] = tested on: SETVI; experiment: as above; format: in vivo, Setaria viridis
Procedure, shortened: as §1

[6] = tested on: ECHCG; experiment: as above; format: in vivo, Echinochloa crus-galli; conditions: for Post-emergence effect against ECHCG: 20 g/ha, visual rating about 3 weeks after treatment
Procedure, shortened: as §1

[7] = tested on: LOLRI; experiment: as above; format: in vivo, Lolium rigidum
Procedure, shortened: as §1

[8] = tested on: AMARE; experiment: as above; format: in vivo, Amaranthus retroflexus; conditions: visual rating about 3 weeks after treatment
Procedure, shortened: as §1

[9] = tested on: ABUTH; experiment: as above; format: in vivo, Abutilon theophrasti; conditions: visual rating about 3 weeks after treatment
Procedure, shortened: as §1

[10] = tested on: AVEFA; experiment: as above; format: in vivo, Avena fatua; conditions: visual rating about 3 weeks after treatment
Procedure, shortened: as §1

[11] = tested on: MATIN; experiment: as above; format: in vivo, Tripleurospermum inodorum
Procedure, shortened: as §1

[12] = tested on: VIOTR; experiment: as above; format: in vivo, Viola tricolor
Procedure, shortened: as §1

[13] = tested on: PHBPU; experiment: as above; format: in vivo, Ipomoea purpurea
Procedure, shortened: as §1

[14] = tested on: ZEAMX; experiment: Post-emergence herbicidal effect and crop plant compatibility, greenhouse pot test; format: in vivo, Zea mays; conditions: one-leaf stage, rated visually after about 3 weeks vs untreated controls
Procedure, shortened: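 Visual % activity scored roughly 3 weeks post-spray against untreated plants, where 100% means death and 0% equals control. Plants were treated at the one-leaf stage, 2 to 3 weeks after sowing in sandy loam, at 20 to 320 g/ha.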

[15] = tested on: KCHSC; experiment: Post-emergence herbicidal effect, greenhouse pot test; format: in vivo
Procedure, shortened: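 Visual rating of activity against untreated plants (100% = plants died, 0% = no effect), done about 3 weeks after treatment. Compounds applied at 20–320 g/ha as aqueous spray (600 l/ha, 0.5% additive) from WP or EC formulations onto one-leaf-stage plants grown in sandy loam under greenhouse conditions.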

Structure (SMILES) | Post-emergence effect against POLCO in % ([1]; 320 g/ha) | Post-emergence effect against VERPE in % ([2]; 80 g/ha) | Post-emergence effect against VERPE in % ([2]; 320 g/ha) | Post-emergence effect against ALOMY ([3]; 320 g/ha) | Post-emergence effect against DIGSA ([4]; 320 g/ha) | Post-emergence effect against SETVI in % ([5]; 80 g/ha) | Post-emergence effect against SETVI in % ([5]; 320 g/ha) | Post-emergence effect against ECHCG in % ([6]; 80 g/ha) | Post-emergence effect against ECHCG in % ([6]; 320 g/ha) | Post-emergence effect against LOLRI in % ([7]; 320 g/ha) | Post-emergence effect against AMARE ([8]; 320 g/ha) | Post-emergence effect against ABUTH ([9]; 80 g/ha) | Post-emergence effect against ABUTH ([9]; 320 g/ha) | Post-emergence effect against AVEFA ([10]; 320 g/ha) | Post-emergence effect against MATIN in % ([11]; 320 g/ha) | Post-emergence effect against VIOTR in % ([12]; 80 g/ha) | Post-emergence effect against VIOTR in % ([12]; 320 g/ha) | Post-emergence effect against PHBPU in % ([13]; 80 g/ha) | Post-emergence effect against PHBPU in % ([13]; 320 g/ha) | Post-emergence effect against KCHSC in % ([15]; 320 g/ha) | also measured
COC(=O)CCOC(=O)C(OC)Oc1nn(-c2ccccc2F)c(-c2ccc(F)nc2)c1C1CC1 (single isomer, unassigned) [Example I-75] | 80% | 80% | 90% | 80% | 80% | 80% | 90% | 90% | 90% | 90% | 90% | 80% | 90% | 90% | 80% | 80% | 90% | 80% | 90% | 90% | Post-emergence effect against DIGSA ([4]; 80 g/ha): 80%; Post-emergence effect against LOLRI in % ([7]; 80 g/ha): 80%; Post-emergence effect against ABUTH ([9]; 20 g/ha): 80%; Post-emergence effect against MATIN in % ([11]; 80 g/ha): 80%; Post-emergence effect at 20 g/ha against ZEAMX in % ([14]; 20 g/ha): 0%; Post-emergence effect at 80 g/ha against ZEAMX in % ([14]; 80 g/ha): 0%
COC(=O)C(OC)Oc1nn(-c2ncccc2F)c(-c2cncc(F)c2)c1C1CC1 (centres unmarked) [Example I-86] | 90% | 80% | 90% | 90% | 80% | 90% | 90% | 90% | 90% | 90% | 90% | 80% | 80% | 90% | 90% | 90% | 90% | 90% | 90% | 90% | Post-emergence effect against POLCO in % ([1]; 80 g/ha): 80%; pest or weed control at 20 g/ha ([1]; Fallopia convolvulus, 504 h, 20 g/ha, read-out: Post-emergence effect against POLCO in %): 80%; Post-emergence effect against ALOMY ([3]; 80 g/ha): 90%; Post-emergence effect against ECHCG [6]: 80%; Post-emergence effect against LOLRI in % ([7]; 80 g/ha): 90%; pest or weed control at 20 g/ha ([7]; Lolium rigidum, 504 h, 20 g/ha, read-out: Post-emergence effect against LOLRI in %): 80%; Post-emergence effect against AMARE ([8]; 80 g/ha): 80%; Post-emergence effect against AVEFA ([10]; 80 g/ha): 90%; pest or weed control at 20 g/ha ([10]; Avena fatua, 504 h, 20 g/ha, read-out: Post-emergence effect against AVEFA): 80%; Post-emergence effect against PHBPU in % ([13]; 20 g/ha): 80%; plant injury at 20 g/ha ([14]; Zea mays, 504 h, 20 g/ha, read-out: Post-emergence effect at 20 g/ha against ZEAMX in %): 0%; plant injury at 80 g/ha ([14]; Zea mays, 504 h, 80 g/ha, read-out: Post-emergence effect at 80 g/ha against ZEAMX in %): 0%; Post-emergence effect against KCHSC in % ([15]; 80 g/ha): 90%
COC(=O)CCOC(=O)C(OC)Oc1nn(-c2ccccc2F)c(-c2ccc(F)nc2)c1C1CC1 (single isomer, unassigned) [Example I-74] | 90% | 90% | 90% | 90% | 90% | 90% | 90% | 90% | 90% | 90% | 80% | 80% | 90% | 90% | 80% | 90% | 90% | 90% | 90% | 90% | Post-emergence effect against DIGSA ([4]; 80 g/ha): 80%; Post-emergence effect against ECHCG [6]: 90%; Post-emergence effect against AMARE ([8]; 20 g/ha): 80%; Post-emergence effect against AMARE ([8]; 80 g/ha): 80%; Post-emergence effect against ABUTH ([9]; 20 g/ha): 80%; Post-emergence effect against AVEFA ([10]; 80 g/ha): 90%; Post-emergence effect against MATIN in % ([11]; 80 g/ha): 80%; Post-emergence effect against VIOTR in % ([12]; 20 g/ha): 80%; Post-emergence effect against PHBPU in % ([13]; 20 g/ha): 80%; Post-emergence effect at 20 g/ha against ZEAMX in % ([14]; 20 g/ha): 0%
